Laboratory results taken from paper PMC6792352, “Limited Chemical Structural Diversity Found to Modulate Thyroid Hormone Receptor in the Tox21 Chemical Library” (Environmental Health Perspectives, 2019).
Structures can show the parent of a compound that is named as a salt.

experiment: in vitro; details: rat, gh3-tre-luc cells, AC50 (uM) modified / 1000

Point of comparison: `CCCCCCCC[N+](CCCCCCCC)(CCCCCCCC)CCCCCCCC` [Tetra-N-octylammonium bromide], CC50 at 24 h 2.56 µM. Against it:
- Cn1nnnc1SCC1=C(C(=O)O)N2C(=O)[C@@H](NC(=O)[C@H](O)c3ccccc3)[C@H]2SC1 [Cefamandole sodium] — higher, > 20 µM
- CCC(Cl)[N+](=O)[O-] (stereo not shown) [1-Chloro-1-nitropropane] — higher, > 100 µM
- CC(C)NCC(O)COc1ccccc1-n1cccc1 (stereo not shown) [Isamoltan] — higher, > 50 µM
- O=C1N=C2SCCN2C(=O)C1Cc1ccc(Cl)cc1 (stereo not shown) [Nuclomedone] — higher, > 50 µM
- Cc1cc(NS(=O)(=O)c2ccc(N)cc2)nc(C)n1 [Sulfisomidine] — higher, > 50 µM
- O=C(O)c1cc(O)c2c(c1)[C@H]([C@H]1c3cc(C(=O)O)cc(O)c3C(=O)c3c(O[C@@H]4O[C@H](CO)[C@@H](O)[C@H](O)[C@H]4O)cccc31)c1cccc(O[C@@H]3O[C@H](CO)[C@@H](O)[C@H](O)[C@H]3O)c1C2=O [Sennoside A] — higher, > 50 µM
- CC(C)OC(=O)c1ccccc1 [Propan-2-yl benzoate] — higher, > 100 µM
- NC(=O)C1c2ccccc2CCc2ccccc21 [Cyheptamide] — higher, > 50 µM
- C[C@]12C=CC(=O)C=C1CC[C@@H]1[C@@H]2[C@@H](O)C[C@@]2(C)[C@H]1CC[C@]2(O)C(=O)CO [Prednisolone] — higher, > 90 µM
- C=C(c1ccc(C(=O)O)cc1)c1cc2c(cc1C)C(C)(C)CCC2(C)C [Bexarotene] — 6.3-fold higher, 16.1 µM
- CC[C@@H]([C@H](C)O)n1ncn(-c2ccc(N3CCN(c4ccc(OC[C@@H]5CO[C@@](Cn6cncn6)(c6ccc(F)cc6F)C5)cc4)CC3)cc2)c1=O [Posaconazole] — 10-fold higher, 26.4 µM
- Cc1ccc(O)cc1 [p-Cresol] — higher, > 100 µM
- S=C1SCN(Cc2ccccc2)CN1Cc1ccccc1 [Sulbentine] — 9-fold higher, 23.1 µM
- O=C(O)CONC(=O)c1ccccc1 [Benzadox] — higher, > 90 µM
- COc1cc2nc(N3CCN(C(=O)C4COc5ccccc5O4)CC3)nc(N)c2cc1OC (stereo not shown) [Doxazosin mesylate] — 9.9-fold higher, 25.4 µM
- CCOC(=O)COc1cc(-n2ncc(C(F)(F)F)c(C)c2=O)c(F)cc1Cl [Flufenpyr-ethyl] — higher, > 90 µM
- O=C(O)COc1ccc(Cl)cc1Cl [2,4-D, Dimethylamine salt] — higher, > 90 µM
- O=C(O)c1ccccc1-c1ccc(C(F)(F)F)cc1 [Xenalipin] — higher, > 50 µM
- CCCCCCCCCCCCCCCCCCOS(=O)(=O)O [Octadecyl sulfate sodium salt] — 21-fold higher, 53.1 µM
- CCCCCCCC [Octane] — higher, > 90 µM
- CC(=O)S[C@H](C(=O)N[C@H]1Cc2ccccc2[C@H]2CCC[C@@H](C(=O)O)N2C1=O)C(C)C [Ilepatril] — higher, > 90 µM
- Cc1ccccc1N1CCN(CCc2nnc3n2CCCC3)CC1 [Dapiprazole hydrochloride] — higher, > 50 µM
- CCCCC(CC)COC(=O)CS (stereo not shown) [2-Ethylhexyl sulfanylacetate] — higher, > 90 µM
- CCCCc1cc2ccccc2c(OCCN(C)C)n1 [Dimethisoquin hydrochloride] — 2.9-fold higher, 7.4 µM
- Cc1ncc(C[n+]2csc(CCOP(=O)(O)O)c2C)c(N)n1 [Monophosphothiamine] — higher, > 50 µM
- O=C(O)c1ccc[n+]([O-])c1 [Nicotinic acid 1-oxide] — higher, > 50 µM
- N[C@H](CCC(=O)O)C(=O)O [D-Glutamic acid] — higher, > 50 µM
- CN(Cc1cc(Br)cc(Br)c1N)C1CCCCC1 [Bromhexine hydrochloride] — 17-fold higher, 42.9 µM
- ClCOCCl [bis(Chloromethyl) ether] — higher, > 90 µM
- O=[N+]([O-])c1c(Cl)cc(Cl)cc1Cl [2,4,6-Trichloronitrobenzene] — higher, > 90 µM
- CC(C)(O)Cc1ccccc1 [2-Methyl-1-phenylpropan-2-ol] — higher, > 90 µM
- C=C1C[C@H]2[C@@H]3C=C(C)C4=CC(=O)CC[C@]4(C)[C@H]3CC[C@]2(C)[C@@]1(OC(C)=O)C(C)=O [Melengestrol acetate] — higher, > 60 µM
- O=C1c2ccccc2-c2n[nH]c3cccc1c23 [SP600125] — higher, > 50 µM
- CCC(C)(O)CCC=C(C)C (stereo not shown) [3,7-Dimethyloct-6-en-3-ol] — higher, > 90 µM
- O=C1CCC(=O)O1 [Succinic anhydride] — higher, > 90 µM
- C=C(C)CNCC [N-Ethyl-2-methylallylamine] — higher, > 90 µM
- Oc1ncc(N(CCCl)CCCl)c(O)n1 [Uracil mustard] — higher, > 50 µM
- C[Si](NC1CCCCC1)(NC1CCCCC1)NC1CCCCC1 [N,N',N''-Tricyclohexyl-1-methylsilanetriamine] — higher, > 90 µM
- O=C(O)/C=C(\CC(=O)O)C(=O)O [trans-Aconitic acid] — higher, > 50 µM
- O=C(O)c1ccccn1 [Picolinic acid] — higher, > 50 µM
- CC1(COc2ccc(CC3SC(=O)NC3=O)cc2)CCCCC1 (stereo not shown) [Ciglitizone] — 10-fold higher, 26.4 µM
- Nc1ccc(S(=O)(=O)NC(=O)c2ccccc2)cc1 [Sulfabenzamide] — higher, > 20 µM
- CC1=NN(c2ccc(S(=O)(=O)O)cc2)C(=O)C1N=Nc1ccccc1 (stereo not shown) [Acid Yellow 11] — 27-fold higher, 69.4 µM
- Sc1ccccc1 [Benzenethiol] — higher, > 90 µM
- OC1CCCC1 [Cyclopentanol] — higher, > 90 µM
- CN/C(=N/CCSCc1nc[nH]c1C)NC#N [Cimetidine] — higher, > 90 µM
- O=S1(=O)OC(c2cc(Br)c(O)c(Br)c2)(c2cc(Br)c(O)c(Br)c2)c2ccccc21 [Bromophenol blue] — 25-fold higher, 63.9 µM
- N=C(N)c1ccc2cc(OC(=O)c3ccc(N=C(N)N)cc3)ccc2c1 [Nafamostat mesylate] — higher, > 50 µM
- Oc1c(Br)cc(Br)c2cccnc12 [Broxyquinoline] — 9.7-fold higher, 24.9 µM
- O=C(O)CNCC(=O)O [Iminodiacetic acid] — higher, > 5 µM
- CCCCCCCCCCCCNC(=N)N [Dodine] — higher, > 4 µM
- N#CC(Br)(Br)C(N)=O [2,2-Dibromo-3-nitrilopropionamide] — higher, > 90 µM
- Nc1ccc(O)c(C(=O)O)c1 [5-Aminosalicylic acid] — higher, > 50 µM
- O=C(CCCCCCCCc1cccnc1)N1CCC(C=C(c2ccccc2)c2ccccc2)CC1 [Ro 23-7637] — 10-fold higher, 26.1 µM
- CC(C)NC[C@@H](O)COc1cccc2ccccc12 [Dexpropranolol] — 11-fold higher, 27.7 µM
- O=[N+]([O-])c1cc(C(F)(F)F)c(Cl)c([N+](=O)[O-])c1Cl [2,4-Dichloro-1,3-dinitro-5-(trifluoromethyl)benzene] — within 1.5-fold, 2.31 µM
- c1cc[n+]2c(c1)-c1cccc[n+]1CC2 [Diquat dibromide monohydrate] — higher, > 50 µM
- C=CC(=O)OCCCCCCCC [Octyl prop-2-enoate] — higher, > 90 µM
- CCOC(=O)c1c(C)n(C)c2ccc(O)cc12 [Mecarbinate] — higher, > 50 µM
- CO/N=C(\C(=O)N[C@@H]1C(=O)N2C(C(=O)O)=C(CSc3nnnn3C)CS[C@H]12)c1csc(N)n1 [Cefmenoxime hydrochloride] — higher, > 50 µM
- CCN(CC)CC [Triethylamine] — higher, > 100 µM
- CCCCCCCCCCCCCCCC(=O)OCC(COC(=O)CCCCCCCCCCCCCCC)OC(=O)CCCCCCCCCCCCCCC [Tripalmitin] — higher, > 50 µM
- CCN1CCN(C(=O)N[C@@H](C(=O)N[C@@H]2C(=O)N3C(C(=O)O)=C(CSc4nnnn4C)CS[C@H]23)c2ccc(O)cc2)C(=O)C1=O [Cefoperazone sodium] — higher, > 50 µM
- CCCC(=O)OCc1ccccc1 [Benzyl butyrate] — higher, > 90 µM
- CCCCCCOCCOCCO [2-[2-(Hexyloxy)ethoxy]ethanol] — higher, > 90 µM
- CC(CN=Cc1ccccc1O)N=Cc1ccccc1O (stereo not shown) [N,N'-Disalicylidene-1,2-diaminopropane] — higher, > 90 µM
- COc1c(Cl)ccc(Cl)c1C(=O)O [Dicamba] — higher, > 90 µM
- COC(=O)CSc1cc(/N=c2\sc(=O)n3n2CCCC3)c(F)cc1Cl [Fluthiacet-methyl] — higher, > 90 µM
- Cc1ccc(Nc2ccc(O)c3c2C(=O)c2ccccc2C3=O)cc1 [D&C Violet 2] — higher, > 90 µM
- OCC(O)CS (stereo not shown) [1-Thioglycerol] — higher, > 90 µM
- OC1CCCc2ccccc21 (stereo not shown) [1,2,3,4-Tetrahydronaphthalen-1-ol] — higher, > 90 µM
- CC(C)[C@H](N)C(=O)OCCOCn1cnc2c(=O)[nH]c(N)nc21 [Valacyclovir hydrochloride] — higher, > 50 µM
- CNCCO [N-Methylethanolamine] — higher, > 90 µM
- C[C@H](O)CN(C)C [(S)-(+)-1-Dimethylamino-2-propanol] — higher, > 50 µM
- CCOC(N)=O [Urethane] — higher, > 100 µM
- CCCOC(=O)NCCCN(C)C [Propamocarb hydrochloride] — higher, > 90 µM

same assay, conditions: rat, gh3-tre-luc cells, AC50 (uM) modified / 1000, Tox21_110001=Tox21_111979; viability, 1 nM T3 present, 24 h

`CCN(CC)CCOC(=O)C(C)(c1ccccc1)c1ccccc1` [Aprofene] gave a CC50 at 24 h of 15.4 µM.

same assay, conditions: rat, gh3-tre-luc cells, AC50 (uM) modified / 1000, Tox21_110001=Tox21_113227; viability, 1 nM T3 present, 24 h

With `CCOC(=O)C1(c2ccccc2)CCCN(C)CC1` (stereo not shown) [Ethoheptazine hydrochloride] the CC50 at 24 h was over 50 µM.

same assay, conditions: rat, gh3-tre-luc cells, AC50 (uM) modified / 1000, Tox21_110001=Tox21_113608; viability, 1 nM T3 present, 24 h

For `O=[P@]1(N(CCCl)CCCl)N[C@H](OO)CCO1` [4-Hydroperoxy cyclophosphamide], the CC50 at 24 h was over 50 µM.

same assay, conditions: rat, gh3-tre-luc cells, AC50 (uM) modified / 1000, Tox21_110001=Tox21_202866; viability, 1 nM T3 present, 24 h

`ClCCCCBr` [1-Bromo-4-chlorobutane] showed a CC50 at 24 h of over 90 µM.

same assay, conditions: rat, gh3-tre-luc cells, AC50 (uM) modified / 1000, Tox21_110001=Tox21_300968; viability, 1 nM T3 present, 24 h

Compound `CNC(=O)CSP(=O)(OC)OC` [Omethoate] has a CC50 at 24 h of over 90 µM.

same assay, conditions: rat, gh3-tre-luc cells, AC50 (uM) modified / 1000, Tox21_110001=Tox21_301070; viability, 1 nM T3 present, 24 h

For `BrCCCCBr` [1,4-Dibromobutane], the CC50 at 24 h was over 90 µM.

same assay, conditions: rat, gh3-tre-luc cells, AC50 (uM) modified / 1000, Tox21_110001=Tox21_302850; viability, 1 nM T3 present, 24 h

In the case of `CN(N=O)C(N)=O` [N-Nitroso-N-methylurea], the CC50 at 24 h is reported as over 90 µM.

same assay, conditions: rat, gh3-tre-luc cells, AC50 (uM) modified / 1000, Tox21_110001=Tox21_400021; viability, 1 nM T3 present, 24 h

With `Nc1c(Cl)c(Cl)c(Cl)c(Cl)c1Cl` [Pentachloroaniline] the CC50 at 24 h was over 90 µM.
